Columns and labels:
Assay type in all cases: biochemical
κ-opioid receptor = κ-opioid receptor (Homo sapiens (Human), UniProt P41145); assay: κ-opioid receptor [35S]GTPγS functional assay, U-2 OS cells; conditions: for Emax: relative to U69,593, U-2 OS cells
Description: κ-Opioid Receptor Functional Assay Procedures: Functional [^35S]GTPγS binding assays were conducted as follows. κ opioid receptor membrane solution was prepared by sequentially adding final concentrations of 0.026 μg/μl κ membrane protein (in-house), 10 μg/mL saponin, 3 μM GDP and 0.20 nM [^35S]GTPγS to binding buffer (100 mM NaCl, 10 mM MgCl2, 20 mM HEPES, pH 7.4) on ice. The prepared membrane solution (190 μl/well) was transferred to 96-shallow well polypropylene plates containing 10 μl of 20× concentrated stock solutions of agonist prepared in DMSO. Plates were incubated for 30 min at a temperature of about 25° C. with shaking. Reactions were terminated by rapid filtration onto 96-well Unifilter GF/B filter plates (Perkin Elmer, Shelton, Conn.) using a 96-well tissue harvester (Packard) and followed by three filtration washes with 200 μl ice-cold binding buffer (10 mM NaH2PO4, 10 mM Na2HPO4, pH 7.4). Filter plates were subsequently dried at 50° C. for 2-3 hours. Fifty μl/well scintillation cocktail (Perkin Elmer, Shelton, Conn.) was added and plates were counted in a Packard Top-Count for 1 min/well.
κ-Opioid Receptor Functional Data: κ GTP EC50 is the concentration of a compound providing 50% of the maximal response for the compound at a κ receptor.
κ GTP Emax (%) is the maximal effect elicited by a compound relative to the effect elicited by U69,593.
(§1) The following TABLE 3 provides results on the activity response of certain Compounds of the Invention at the μ- and κ-opioid receptors determined as described above using U-2 OS cells.

μ-opioid receptor [1] = biological target: T1, μ-opioid receptor (Homo sapiens (Human), UniProt P35372); assay: μ-opioid receptor [35S]GTPγS functional assay, U-2 OS cells; conditions: for Emax: relative to DAMGO, U-2 OS cells
Description: (§2) μ-Opioid Receptor Functional Assay Procedures: [^35S]GTPγS functional assays were conducted using freshly thawed μ-receptor membranes prepared in-house from a cell line expressing recombinant μ opioid receptor in a HEK-293, CHO or U-2 OS cell background, or purchased from a commercial source (Perkin Elmer, Shelton, Conn.; or DiscovRx, Fremont, Calif.). Assay reactions were prepared by sequentially adding the following reagents to binding buffer (100 mM NaCl, 10 mM MgCl2, 20 mM HEPES, pH 7.4) on ice (final concentrations indicated): membrane protein (0.026 mg/mL), saponin ([…]), GDP ([…]) and [^35S]GTPγS (0.20 nM; Perkin Elmer, Shelton, Conn.). The prepared membrane solution (190 μl/well) was transferred to 96-shallow well polypropylene plates containing 10 μl of 20× concentrated stock solutions of the agonist [D-Ala^2, N-methyl-Phe^4 Gly-ol^5]-enkephalin (DAMGO) prepared in dimethyl sulfoxide (DMSO). Plates were incubated for 30 min at about 25° C. with shaking. Reactions were terminated by rapid filtration onto 96-well Unifilter GF/B filter plates (Perkin Elmer, Shelton, Conn.) using a 96-well tissue harvester (Perkin Elmer, Shelton, Conn.) followed by three filtration washes with 200 μl of ice-cold wash buffer (10 mM NaH2PO4, 10 mM Na2HPO4, pH 7.4). Filter plates were subsequently dried at 50° C. for 2-3 hours. BetaScint scintillation cocktail (Perkin Elmer, Shelton, Conn.) was added (50 μl/well) and plates were counted using a Packard Top-Count for 1 min/well. Data were analyzed using the sigmoidal dose-response curve fitting functions in GraphPad PRISM v. 3.0, or an in-house function for non-linear, sigmoidal dose-response curve-fitting.
(§3) μ-Opioid Receptor Functional Data: μ GTP EC50 is the concentration of a compound providing 50% of the maximal response for the compound at a μ-opioid receptor.
(§4) μ GTP Emax (%) is the maximal effect elicited by a compound relative to the effect elicited by DAMGO, a standard μ agonist. Generally, the μ GTP Emax (%) value measures the efficacy of a compound to treat or prevent pain or other Conditions.
as §1

μ-opioid receptor [2] = biological target: T1, μ-opioid receptor; assay: μ-opioid receptor [35S]GTPγS functional assay, HEK-293 or CHO cells
Description: as §2, §3, §4
In TABLE 2, activity response of certain Compounds of the Invention to the μ-, δ- and κ-opioid receptors was determined as described above for functional assays using HEK-293 or CHO cells.

[3] = relative to DAMGO, HEK-293 or CHO cells

COc1ccc2c(c1)[C@]13CCN[C@H](C2)[C@]1(O)Cc1cc(C(N)=O)c(=O)[nH]c1C3 [Compound 32, (6R,6aS,12aR)-6a-hydroxy-2-methoxy-10-oxo-6,6a,7,10,11,12-hexahydro-5H-6,12a-(epiminoethano)naphtho[2,1-g]quinoline-9-carboxamide]
EC50 (κ-opioid receptor): > 20000 nM
Emax (κ-opioid receptor): 6.7 ± 6.56%
EC50 (μ-opioid receptor [1]): > 20000 nM
Emax (μ-opioid receptor [1]): 17.5%

NC(=O)c1cc2c([nH]c1=O)C[C@]13CCN(CC(F)(F)F)[C@H](Cc4ccc(O)cc41)[C@]3(O)C2 [Compound 34, (6R,6aS,12aR)-2,6a-dihydroxy-10-oxo-15-(2,2,2-trifluoroethyl)-6,6a,7,10,11,12-hexahydro-5H-6,12a-(epiminoethano)naphtho[2,1-g]quinoline-9-carboxamide]
EC50 (κ-opioid receptor): > 20000 nM
Emax (κ-opioid receptor): 0%
EC50 (μ-opioid receptor [1]): > 20000 nM
Emax (μ-opioid receptor [1]): 8.5%

NC(=O)c1cc2c([nH]c1=O)C[C@]13CCN(CCF)[C@H](Cc4ccc(O)cc41)[C@]3(O)C2 [Compound 35, (6R,6aS,12aR)-15-(2-fluoroethyl)-2,6a-dihydroxy-10-oxo-6,6a,7,10,11,12-hexahydro-5H-6,12a-(epiminoethano)naphtho[2,1-g]quinoline-9-carboxamide]
EC50 (κ-opioid receptor): 93.7 ± 27.7 nM
Emax (κ-opioid receptor): 66 ± 1.53%
EC50 (μ-opioid receptor [1]): > 20000 nM
Emax (μ-opioid receptor [1]): 2.5%

CN1CC[C@]23Cc4c(cc(C(N)=O)c(=O)n4C)C[C@@]2(O)[C@H]1Cc1ccc(O)cc13 [Compound 39, (6R,6aS,12aR)-2,6a-dihydroxy-11,15-dimethyl-10-oxo-6,6a,7,10,11,12-hexahydro-5H-6,12a-(epiminoethano)naphtho[2,1-g]quinoline-9-carboxamide]
EC50 (κ-opioid receptor): 641.6 ± 3.49 nM
Emax (κ-opioid receptor): 54 ± 3.61%
EC50 (μ-opioid receptor [1]): 164 ± 59 nM
Emax (μ-opioid receptor [1]): 33.7 ± 8.01%

COc1ccc2c(c1)[C@]13CCN(C)[C@H](C2)[C@]1(O)Cc1cc(C(=O)O)c(=O)[nH]c1C3 [Compound 40, (6R,6aS,12aR)-6a-hydroxy-2-methoxy-15-methyl-10-oxo-6,6a,7,10,11,12-hexahydro-5H-6,12a-(epiminoethano)naphtho[2,1-g]quinoline-9-carboxylic acid]
EC50 (κ-opioid receptor): > 20000 nM
Emax (κ-opioid receptor): 96 ± 1.53%
EC50 (μ-opioid receptor [1]): 13900 ± 1630 nM
Emax (μ-opioid receptor [1]): 72 ± 4.16%

CN1CC[C@]23Cc4[nH]c(=O)c(C(=O)O)cc4C[C@@]2(O)[C@H]1Cc1ccc(O)cc13 [Compound 41, (6R,6aS,12aR)-2,6a-dihydroxy-15-methyl-10-oxo-6,6a,7,10,11,12-hexahydro-5H-6,12a-(epiminoethano)naphtho[2,1-g]quinoline-9-carboxylic acid]
EC50 (κ-opioid receptor): 568 ± 33.3 nM
Emax (κ-opioid receptor): 70 ± 4.58%
EC50 (μ-opioid receptor [1]): 111 ± 8.9 nM
Emax (μ-opioid receptor [1]): 58.2 ± 2.32%

CN1CC[C@]23Cc4[nH]c(=O)c(C(=O)NCC5CCCCC5)cc4C[C@@]2(O)[C@H]1Cc1ccc(O)cc13 [Compound 44, (6R,6aS,12aR)—N-(cyclohexylmethyl)-2,6a-dihydroxy-15-methyl-10-oxo-6,6a,7,10,11,12-hexahydro-5H-6,12a-(epiminoethano)naphtho[2,1-g]quinoline-9-carboxamide]
EC50 (κ-opioid receptor): 92.5 ± 24.2 nM
Emax (κ-opioid receptor): 67 ± 1%
EC50 (μ-opioid receptor [1]): 439 ± 27.4 nM
Emax (μ-opioid receptor [1]): 88.3 ± 0.88%

CN1CC[C@]23Cc4[nH]c(=O)c(C(=O)NCc5ccccc5)cc4C[C@@]2(O)[C@H]1Cc1ccc(O)cc13 [Compound 45, (6R,6aS,12aR)—N-benzyl-2,6a-dihydroxy-15-methyl-10-oxo-6,6a,7,10,11,12-hexahydro-5H-6,12a-(epiminoethano)naphtho[2,1-g]quinoline-9-carboxamide]
EC50 (κ-opioid receptor): 128 ± 8.96 nM
Emax (κ-opioid receptor): 94.3 ± 5.61%
EC50 (μ-opioid receptor [1]): 306 ± 25.2 nM
Emax (μ-opioid receptor [1]): 90 ± 1.53%

CN(C)C(=O)c1cc2c([nH]c1=O)C[C@]13CCN(C)[C@H](Cc4ccc(O)cc41)[C@]3(O)C2 [Compound 46, (6R,6aS,12aR)-2,6a-dihydroxy-N,N,15-trimethyl-10-oxo-6,6a,7,10,11,12-hexahydro-5H-6,12a-(epiminoethano)naphtho[2,1-g]quinoline-9-carboxamide]
EC50 (κ-opioid receptor): 624 ± 83.6 nM
Emax (κ-opioid receptor): 73 ± 6.99%
EC50 (μ-opioid receptor [1]): 157 ± 16.4 nM
Emax (μ-opioid receptor [1]): 84.7 ± 2.19%

CN1CC[C@]23Cc4[nH]c(=O)c(C(=O)N5CCOCC5)cc4C[C@@]2(O)[C@H]1Cc1ccc(O)cc13 [Compound 47, (6R,6aS,12aR)-2,6a-dihydroxy-15-methyl-9-(morpholine-4-carbonyl)-6a,7,11,12-tetrahydro-5H-6,12a-(epiminoethano)naphtho[2,1-g]quinolin-10(6H)-one]
EC50 (κ-opioid receptor): 511 ± 139 nM
Emax (κ-opioid receptor): 50 ± 2.74%
EC50 (μ-opioid receptor [1]): 156 ± 12.7 nM
Emax (μ-opioid receptor [1]): 82 ± 1.73%

O=C(c1cc2c([nH]c1=O)C[C@]13CCN(CC4CC4)[C@H](Cc4ccc(O)cc41)[C@@H]3C2)N1CCS(=O)(=O)CC1 [Compound 60, (6R,6aR,12aS)-15-(cyclopropylmethyl)-9-(1,1-dioxidothiomorpholine-4-carbonyl)-2-hydroxy-6,6a,7,12-tetrahydro-5H-6,12a-(epiminoethano)naphtho[2,1-g]quinolin-10(11H)-one]
EC50 (μ-opioid receptor [2]): > 20 µM
Emax (μ-opioid receptor [2]; [3]): -1 ± 1%

O=C(N[C@@H]1c2ccccc2C[C@@H]1O)c1cc2c([nH]c1=O)C[C@]13CCN(CC4CC4)[C@H](Cc4ccc(O)cc41)[C@@H]3C2 [Compound 61, (6R,6aR,12aS)-15-(cyclopropylmethyl)-2-hydroxy-N-((1R,2S)-2-hydroxy-2,3-dihydro-1H-inden-1-yl)-10-oxo-6,6a,7,10,11,12-hexahydro-5H-6,12a-(epiminoethano)naphtho[2,1-g]quinoline-9-carboxamide]
EC50 (μ-opioid receptor [2]): > 20 µM
Emax (μ-opioid receptor [2]; [3]): -1%

O=C(N[C@H]1c2ccccc2C[C@H]1O)c1cc2c([nH]c1=O)C[C@]13CCN(CC4CC4)[C@H](Cc4ccc(O)cc41)[C@@H]3C2 [Compound 62, (6R,6aR,12aS)-15-(cyclopropylmethyl)-2-hydroxy-N-((1S,2R)-2-hydroxy-2,3-dihydro-1H-inden-1-yl)-10-oxo-6,6a,7,10,11,12-hexahydro-5H-6,12a-(epiminoethano)naphtho[2,1-g]quinoline-9-carboxamide]
EC50 (μ-opioid receptor [2]): > 20 µM
Emax (μ-opioid receptor [2]; [3]): -1%

CN(C(=O)c1cc2c([nH]c1=O)C[C@]13CCN(CC4CC4)[C@H](Cc4ccc(O)cc41)[C@@H]3C2)C1CCCCC1 [Compound 63, (6R,6aR,12aS)—N-cyclohexyl-15-(cyclopropylmethyl)-2-hydroxy-N-methyl-10-oxo-6,6a,7,10,11,12-hexahydro-5H-6,12a-(epiminoethano)naphtho[2,1-g]quinoline-9-carboxamide]
EC50 (μ-opioid receptor [2]): > 20 µM
Emax (μ-opioid receptor [2]; [3]): -1%

O=C(c1cc2c([nH]c1=O)C[C@]13CCN(CC4CC4)[C@H](Cc4ccc(O)cc41)[C@@H]3C2)N1Cc2ccccc2C1 [Compound 64, (6R,6aR,12aS)-15-(cyclopropylmethyl)-2-hydroxy-9-(isoindoline-2-carbonyl)-6,6a,7,12-tetrahydro-5H-6,12a-(epiminoethano)naphtho[2,1-g]quinolin-10(11H)-one]
EC50 (μ-opioid receptor [2]): > 20 µM
Emax (μ-opioid receptor [2]; [3]): 3.5%

O=C(c1cc2c([nH]c1=O)C[C@]13CCN(CC4CC4)[C@H](Cc4ccc(O)cc41)[C@@H]3C2)N1[C@@H]2CC[C@H]1C[C@@H](O)C2 [Compound 65, (6R,6aR,12aS)-15-(cyclopropylmethyl)-2-hydroxy-9-((1R,R,5S)-3-hydroxy-8-azabicyclo[3.2.1]octane-8-carbonyl)-6,6a,7,12-tetrahydro-5H-6,12a-(epiminoethano)naphtho[2,1-g]quinolin-10(11H)-one]
EC50 (μ-opioid receptor [2]; GTPγS, HEK-293 or CHO cells, bound given in μM, read-out: μ EC50): > 20 µM
μ Emax (%) (μ-opioid receptor [2]; [3]): 4.00%

— patent publication US8980906B2, “Pyridonemorphinan analogs and biological activity on opioid receptors” (Purdue Pharma L.P., priority 2012, dated 2015)
